Holding throughout (assay type): ADME, organism-based
Series [1] can be described thus: Clearance in Sprague-Dawley rat. The conditions noted are these: in vivo.
A short description of series [2]: Volume of distribution at steady state in Sprague-Dawley rat at 2 mg/kg, iv. Details: dose 2 mg/kg, route intravenous. The conditions noted are these: in vivo, read-out: Vdss.
Series [3] in a line: Half life in Sprague-Dawley rat at 2 mg/kg, iv. Details: dose 2 mg/kg, route intravenous. The conditions noted are these: in vivo.
The nature of series [4]: Oral bioavailability in Sprague-Dawley rat at 10 mg/kg. The conditions noted are these: in vivo.
Series [5] can be described thus: AUC (0 to infinity) in Sprague-Dawley rat at 10 mg/kg, po. Details: time infinity, dose 10 mg/kg, route oral. The conditions noted are these: plasma.

Consider `OCC1CCN(c2nccnc2OC2CN(c3ccc4ccccc4n3)C2)CC1`, for which the clearance – broadly, the volume of plasma or blood freed of the substance per unit of time – in series [1] was 61.3 mL/min/kg. Besides, the Vd in series [2] is 4.81 L/kg. Further, the half-life (commonly how long it takes for the measured level to halve) in series [3] is 6.42 h. In addition, the bioavailability (as a rule, dose-corrected exposure relative to a reference, in per cent) in series [4] amounted to 18%.

`CC(=O)N1CCC(c2nccnc2OC2CN(c3ccc4ccccc4n3)C2)CC1` gave a clearance in series [1] of 16 mL/min/kg. Besides, the Vd in series [2] worked out at 1.55 L/kg. This molecule also had a half-life in series [3] of 3.64 h. Further, in series [5], the area under the curve AUC(0-inf) (usually total exposure, with the tail of the curve extrapolated) is 17.4 ng·h/mL. Also, in series [4], the bioavailability came out at 62%.

Turning to `CC(=O)N1CCC(c2nc3ccccc3nc2OC2CN(c3ccc4ccccc4n3)C2)CC1`, the clearance in series [1] was 9.5 mL/min/kg. The Vd in series [2] was found to be 1.55 L/kg. In series [3], this molecule gave a half-life of 2.35 h. In addition, the AUC(0-inf) in series [5] came out at 27.9 ng·h/mL. The same molecule registered a bioavailability in series [4] of 57%.

For the origin of these results see ChEMBL document CHEMBL3351491, “Synthesis and preliminary biological evaluation of potent and selective 2-(3-alkoxy-1-azetidinyl) quinolines as novel PDE10A inhibitors with improved solubility” (Bioorg Med Chem, 2014).
